Measurements as given in patent publication US20120225905A1, “BEPOTASTINE COMPOSITIONS” (Mitsubishi Tanabe Pharma Corporation, priority 2010, published 2012).

Assay: Clinical Example 1: pharmacokinetic assessments
Format: in vivo, human
Conditions: plasma, noncompartmental PK analysis
Protocol: At Visit 3 (a minimum of 3 days after Visit 2), a subset of approximately 35 subjects who qualified at Visit 2 were randomized and began PK blood draws in the clinic that occurred over 24 hours for placebo, 2%, 4%, or 6% dosages of bepotastine besilate (using a randomization ratio of 1:1:1:1). There were approximately nine subjects in each of the four treatment groups. Blood sampling for PK assessments was drawn within 90 minutes (pre-dose). Subjects were dosed and additional blood samples were collected at 10, 20, 30, and 45 minutes post-dose and at 1, 1.25, 2, 3, 4, 6, 10, and 12 hours post-dose while remaining in the clinic. Subjects returned the next day for a 24 hour post-dose PK blood draw. PK blood draws at 1, 1.25, 2, 3, 4, 6, 10, and 12 hours post-dose were within a ±1 minute window and at 24 hours post dose were within a ±60 minute window.
All subjects who qualified at Visit 2 returned to the clinic for Visit 4 following a minimum ten day washout period. At Visit 4, subjects recorded individual nasal and ocular symptoms on 0-3 unit scales prior to entering the EEC and every 30 minutes for the first two hours while in the EEC, including just prior to dosing. […] At the end of Visit 4, subjects recorded reflective nasal symptom scores, summarizing their subjective opinion of each nasal and ocular symptom score (same 0-3 unit scales), over the entire post-dosing period in the EEC. […]

## O=C(O)CCCN1CCC(O[C@@H](c2ccc(Cl)cc2)c2ccccn2)CC1 [bepotastine, (+)-(S)-4-[4-[(4-chlorophenyl)(2-pyridyl)methoxy]piperidino]butyric acid]
  absorption from the nasal sprays: absorbed quickly
  half-life: short
